Experimental data taken from patent US20180249725A1, “ANTIMICROBIAL COMPOSITIONS” (priority 2015, published 2018).
Marks after values point to notes of the source that are not given here.

Columns and labels:
Listeria = details: pure form; cited from earlier work
Listeria monocytogenes = Listeria monocytogenes growth in inoculated raw minced beef under modified atmosphere; format: cell-based; details: for Measured effect on Listeria monocytogenes growth: [(log(CFU/mL) in meat treated with plant extracts) − (log(CFU/mL) control meat (without treatment))]: rosemary/hesperidin series added at 1.18% to minced beef, 8° C., 70% O2 and 30% CO2; for Expected effect on Listeria monocytogenes growth (difference of log(CFU/mL) to control meat): rosemary/hesperidin series, calculated from effects of the single extracts
Description: In the course of the work leading to the present method and composition, mixtures of rosemary extract and of hesperidin or of Punica extract, in a number of varying concentration ratios were tested for antilisterial effectiveness using the classical microbiological methods. Bacterial enumeration in all here studied samples was performed on the Aloa medium according to the standardized method (NF EN ISO 11-290). The growth of Listeria monocytogenes was evaluated in meat without any antilisterial agent and without any plant extract (control). The data of listerial growth in a control meat are represented in FIG. 2. […] Following the meat manufacture, a batch of meat was sampled straight after the mincing process and transported in refrigerated conditions to the laboratory. […] Any further supplementation to the meat was conducted in such a laboratory. […] Plant extracts were in powder form and were added as such to the meat. To keep them as dry powders, plant extracts were supplemented with maltodextrin prior to drying process. […] Control meat pieces, without extract treatment, followed the same procedure. […] Packaged meat was stored in the dark for a stated amount of time. A series of experiments involving rosemary and hesperidin extracts, rosemary and Punica extracts, typical antilisterial compounds (Sodium lactate or Sodium acetate) and untreated control were conducted. Mixtures or alone extracts of rosemary and of hesperidin were added at 1.18% to the meat. […] Such analyses were conducted on the 0th, 6th and 9th day of storage. The growth of Listeria monocytogenes was evaluated in meat in refrigerated conditions for each extract or compound and for their combinations. […] Logarithmic values of Listerial growth (log CFU/mL) were calculated for each experiment and treatment. Differences of logarithmic values of Listerial growth (log CFU/mL) between the meat treated with plant extracts and the untreated control were calculated to yield a final result. The more negative value was obtained, the higher was the antilisterial effect of the extract or of the combination of extracts. […] (Guide pour la validation de méthodes d'essais microbiologiques et l'évaluation de leur incertitude de mesure dans les domaines de la microbiologie […]'environnement), Schweizerische Eidgenossenschaft, Confédération suisse, Département […]'économie, de la formation et de la recherche DEFR, Document No. 328, April 2013, Rev. 03).

[1] = stored in cold; applied at 300 ppm; cited from earlier work

Question: For COc1ccc([C@@H]2CC(=O)c3c(O)cc(O[C@@H]4O[C@H](CO)[C@@H](O)[C@H](O)[C@H]4O[C@@H]4O[C@@H](C)[C@H](O)[C@@H](O)[C@H]4O)cc3O2)cc1O [neohesperidin], which “Effect on Listerial growth in vitro” value (Listeria) is on record?
Answer: no effect

Question: With COc1ccc([C@@H]2CC(=O)c3c(O)cc(O[C@@H]4O[C@H](CO[C@@H]5O[C@@H](C)[C@H](O)[C@@H](O)[C@H]5O)[C@@H](O)[C@H](O)[C@H]4O)cc3O2)cc1O [Hesperidin] as the compound, how does the “Extract proportion in combination that provide antilisterial response in meat” value (Listeria monocytogenes; surface response methodology (FIG. 4), response difference to control <0.5 log(CFU/mL) as printed, total added to meat not above 1.18%) read?
Answer: 0.5-48.0%

Question: Which results are given for hesperidin?
Answer: Measured effect on Listeria monocytogenes growth: [(log(CFU/mL) in meat treated with plant extracts) − (log(CFU/mL) control meat (without treatment))] (Listeria monocytogenes; after 6 days of growth): −0.09 log(CFU/mL); Measured effect on Listeria monocytogenes growth: [(log(CFU/mL) in meat treated with plant extracts) − (log(CFU/mL) control meat (without treatment))] (Listeria monocytogenes; after 9 days of growth): −0.64 log(CFU/mL)

Question: What does the source list for hesperidin [0.5H]?
Answer: Measured effect on Listeria monocytogenes growth: [(log(CFU/mL) in meat treated with plant extracts) − (log(CFU/mL) control meat (without treatment))] (Listeria monocytogenes; after 6 days of growth): −0.37* log(CFU/mL); Measured effect on Listeria monocytogenes growth: [(log(CFU/mL) in meat treated with plant extracts) − (log(CFU/mL) control meat (without treatment))] (Listeria monocytogenes; after 9 days of growth): −0.71* log(CFU/mL); Expected effect on Listeria monocytogenes growth (difference of log(CFU/mL) to control meat) (Listeria monocytogenes; after 6 days of growth): −0.045 log(CFU/mL); Expected effect on Listeria monocytogenes growth (difference of log(CFU/mL) to control meat) (Listeria monocytogenes; after 9 days of growth): −0.32 log(CFU/mL)

Question: For O=c1oc2c(O)c(O)cc3c(=O)oc4c(O)c(O)cc1c4c23 [ellagic acid], which “Antimicrobial effect on raw beef MAP meat” value [1] is on record?
Answer: no antimicrobial effect
